Measurements published in ChEMBL document CHEMBL1129674, “Design, synthesis, and biological activity of a potent inhibitor of the neuropeptidase N-acetylated alpha-linked acidic dipeptidase” (J Med Chem, 1996).

Assays:
Assay type in all cases: functional
[1] = species: Rattus norvegicus; test: In vitro effect of compound on Basal Glutamate Efflux at 0.1 nM
[2] = species: Rattus norvegicus; test: In vitro effect of compound on Basal Glutamate Efflux at 1.0 nM
[3] = species: Rattus norvegicus; test: In vitro effect of compound on Basal Glutamate Efflux at 10.0 nM
[4] = species: Rattus norvegicus; test: In vitro effect KCL-Evoked Giutamate at 0.1 nM
[5] = species: Rattus norvegicus; test: In vitro effect KCL-Evoked Giutamate at 10.0 nM
[6] = species: Rattus norvegicus; test: In vitro effect KCL-Evoked Glutamate at 1.0 nM

With `O=C(O)CCC(CP(=O)(O)O)C(=O)O` (stereo unspecified) the Efflux [1] was 151%, the Efflux [2] was 137% and the Efflux [3] was 167%. It also gave a Release [4] of 316, a Release [5] of 437 and a Release [6] of 368.
